Tests used:
Assay type in all cases: in vivo
spring wheat [1] = test: Field trial: grain yield of spring wheat, postemergence treatment with MPR + epoxiconazole; conditions: EPC 125, MPR + EPC 100 + 125 g ai/ha
Description: (§1) The applications have been done with seed treatment, pre- or post-emergence treatments straight (alone, 1 application) or sequential treatments e.g. seed treatment followed by pre-emergence and/or post-emergence spray applications. The pre- or post-emergence applications were made with spray applications using 100-300 l/water per hectare. The growth stage of the crops species at the time of application are reported in the result tables. The dose rates of the herbicidal active ingredients applied alone respective in sequential application are also described in the result tables. The assessments have been done via visual ratings (0-100% scale) or counting. The trials have been harvested after crops reached the full maturity. After the harvest the total weight of kernels/seeds/beets per plot was measured. The results are reported as means over 2-4 replications. The time between applications and assessments or countings/harvest are described in the result tables as well.

winter barley = test: Field trial: grain yield of winter barley, sequential application of MPR; conditions: 0.5 g ai/kg seed fb 4 × 50 g ai/ha post
Description: (§2) The trials have been carried out under natural field conditions (plot trials, 10 square meter plots, 2-4 replications).
(§3) The applications have been done with seed treatment, pre- or post-emergence treatments straight (alone, 1 application) or sequential treatments e.g. seed treatment followed by pre-emergence and/or post-emergence spray applications. The pre- or post-emergence applications were made with spray applications using 100-300 l/water per hectare. The growth stage of the crops species at the time of application are reported in the result tables. The dose rates of the herbicidal active ingredients applied alone respective in sequential application are also described in the result tables.
(§4) The assessments have been done via visual ratings (0-100% scale) or counting. The trials have been harvested after crops reached the full maturity. After the harvest the total weight of kernels/seeds/beets per plot was measured. The results are reported as means over 2-4 replications. The time between applications and assessments or countings/harvest are described in the result tables as well.
(§5) The active ingredients have been applied to the untreated, dry seeds together with a carrier. After a short period of time to let the seeds dry, they were ready to be sown in the pot or field using standard equipments.

sugarbeets [2] = test: Field trial: sugar yield of sugarbeets, sequential application of mefenpyr-diethyl; conditions: 0.015 mg ai/seed fb 3 × 50 g ai/ha post
Description: as §2, §3, §4, §5

sugarbeet = test: Field trial: beet yield of sugarbeet, sequential application of mefenpyr-diethyl; conditions: 0.015 mg ai/seed fb 3 × 50 g ai/ha post
Description: as §2, §3, §4, §5

spring wheat [3] = test: Field trial: grain yield of spring wheat, postemergence treatment with mefenpyr-diethyl
Description: as §2, §3, §4

durum wheat = test: Field trial: grain yield of durum wheat, seed treatment with mefenpyr-diethyl
Description: as §2, §3, §4, §5

winter wheat [4] = test: Field trial: emergence (number of plants) of winter wheat, pre-emergence application of mefenpyr-diethyl; conditions: 11 days after application
Description: as §2, §3, §4

sugarbeets [5] = test: Field trial: emergence of sugarbeets, seed treatment with MPR; conditions: seed treatment 0.015 mg ai/seed, 28 days after planting
Description: as §2, §3, §4, §5

winter wheat [6] = test: Field trial: grain yield of winter wheat, postemergence treatment with mefenpyr-diethyl
Description: as §2, §3, §4

[7] = tested on: winter oilseed rape (canola); test: Field trial: grain yield of winter oilseed rape (canola), sequential application of mefenpyr-diethyl; conditions: 3 g ai/kg seed fb 3 × 50 g ai/ha post
Description: as §2, §3, §4, §5

[8] = tested on: spring oilseed rape (canola); test: Field trial: grain yield of spring oilseed rape (canola), postemergence treatment with MPR + tebuconazole; conditions: TBC 150, MPR + TBC 100 + 150 g ai/ha
Description: as §1

[9] = grain yield relative to UTC = 100%

Fc1ccc([C@]2(Cn3cncn3)O[C@H]2c2ccccc2Cl)cc1 (racemic) [EPC, epoxiconazole]
Relative % (spring wheat [1]; [9]): 109.7% | Difference (%) vs. UTC (spring wheat [1]; grain yield): +9.7% | Yield (grain yield at harvest) (spring wheat [1]; spring wheat, post-emergence spring, flag leaf sheath opening, harvest 55 days after application, UTC 1.84): 2.02 t/ha

CCOC(=O)C1=NN(c2ccc(Cl)cc2Cl)C(C)(C(=O)OCC)C1 (stereo not drawn) [MPR, ethyl 1-(2,4-dichlorophenyl)-5-(ethoxycarbonyl)-5-methyl-2-pyrazoline-3-carboxylate]
Relative (winter barley; [9]): 104% | Difference (%) vs. UTC (winter barley; grain yield): +4% | Yield (grain yield at harvest) (winter barley; winter barley, harvest 74 days after the last application, UTC 10.01): 10.45 t/ha | Relative (sugarbeets [2]; sugar yield relative to UTC = 100%): 106.1% | Difference (%) vs. UTC (sugarbeets [2]; sugar yield): +6.1% | Sugar Yield (by weight at harvest) (sugarbeets [2]; sugarbeets, harvest 162 days after the last application, UTC 5.70): 6.05 t/ha | Relative (sugarbeet; beet yield relative to UTC = 100%): 108.1% | Difference (%) vs. UTC (sugarbeet; beet yield): +8.1% | Yield (yield of beets by weight at harvest) (sugarbeet; sugarbeet, harvest 162 days after last application, UTC 58.7): 63.5 t/ha | Relative % (spring wheat [3]; grain yield relative to UTC = 100%, 100 g ai/ha post-emergence, 72 days after application): 119.2% | Difference (%) vs. UTC (spring wheat [3]; grain yield, 100 g ai/ha post-emergence, 72 days after application): +19.2% | Yield (grain yield at harvest) (spring wheat [3]; spring wheat, 100 g ai/ha post-emergence spring, flag leaf/beginning of ear heading, harvest 72 days after application, UTC 6.06): 7.16 t/ha | Yield (grain yield at harvest) (durum wheat; durum wheat, seed treatment 0.5 g ai/kg seed prior planting, harvest 158 days after application, UTC 4.45): 4.97 t/ha | Relative % (durum wheat; grain yield relative to UTC = 100%, seed treatment 0.5 g ai/kg seed): 111.7% | Difference (%) vs. UTC (durum wheat; grain yield, seed treatment 0.5 g ai/kg seed): +11.7% | Relative % (winter wheat [4]; number of plants relative to UTC = 100%, pre-emergence, dose 100): 107.4% | Difference (%) vs. UTC (winter wheat [4]; number of plants, pre-emergence, dose 100): +7.4% | Yield [plants/row meter] (number of plants, increased emergence) (winter wheat [4]; winter wheat, pre-emergence treatment, dose 100 g ai/ha, UTC 34.2): 36.8 plants/row meter | Relative (sugarbeets [5]; emerged plants relative to UTC = 100%): 109.2% | Difference (%) vs. UTC (sugarbeets [5]; emerged plants): +9.2% | plants/18 row meters (emergence, counting) (sugarbeets [5]; sugarbeets, UTC 65): 71 plants/18 row meters | Relative % (winter wheat [6]; grain yield relative to UTC = 100%, 100 g ai/ha post-emergence, 84 days after application): 106.3% | Difference (%) vs. UTC (winter wheat [6]; grain yield, 100 g ai/ha post-emergence, 84 days after application): +6.3% | Yield (grain yield at harvest) (winter wheat [6]; winter wheat, 100 g ai/ha post-emergence spring, beginning of stem elongation, harvest 84 days after application, UTC 9.52): 10.12 t/ha | Relative [7, 9]: 107% | Difference (%) vs. UTC ([7]; grain yield): +7% | Yield (grain yield at harvest) ([7]; winter oilseed rape, harvest 102 days after the last application, UTC 3.60): 3.85 t/ha

CC(C)(C)C(O)(CCc1ccc(Cl)cc1)Cn1cncn1 (stereo not drawn) [TBC, tebuconazole]
Relative % [8, 9]: 102% | Difference (%) vs. UTC ([8]; grain yield): +2% | Yield (grain yield at harvest) ([8]; spring oilseed rape, post-emergence spring, beginning of flowering, harvest 92 days after application, UTC 3.91): 3.98 t/ha

— patent US10435372B2, “Use of phenylpyrazolin-3-carboxylates for improving plant yield” (BAYER INTELLECTUAL PROPERTY GMBH, priority 2011, dated 2019)
